As usually defined, the ILS is the gain in survival time of treated over control animals, in per cent.

A value given as a limit tells only on which side of the number the result lay.

In one data set the test system is P-388 leukemic cells. As to the kind of experiment: Antitumor activity against mouse P-388 leukemia (increase in life span, survivors). The class given is in vivo, mouse (BDF1 mice). Conditions: for 35 days survivals No./treated / ILS (increase in life span): P-388; for ILS (increase in life span): Table 1, 35 days, control 7.57-7.79 days; for ILS at 15 mg/kg / ILS at 30 mg/kg: P388.

Data set [1] has as its system Ehrlich ascites carcinoma cells. As to the kind of experiment: Antitumor activity against Ehrlich ascites carcinoma (increase in life span, survivors). Format: in vivo, mouse (ICR mice). The conditions noted are these: for 35 days survivals No./treated / ILS (increase in life span): Ehrlich; for ILS (increase in life span): Table 1, 35 days, control 15.14-15.43 days. How it is done:
Antitumor activities against mouse leukemia P-388 carcinoma and Ehrlich ascites carcinoma are shown in the ensuing examples, according to the following list of specifications:
2. Animals: BDF1 mice or ICR mice, aged 5-6 weeks, male, 5 mice in a group and 7 control mice.
3. Tumor cells: P-388 leukemic cells; 1×10^6 /0.2 ml are inoculated intraperitoneally in BDF1 mice. Ehrlich ascites carcinoma cells; 2×10^6 /0.2 ml are inoculated intraperitoneally in ICR mice.
4. Preparation of samples and administration of drugs: Samples are suspended in Tris-HCl saline solution by sonication. 0.1 ml/10 g body weight is administered. Samples are stored at 4° C. in the dark.
Administration: starting two days after inoculation of tumor, once a day for 2-7 days.
5. Increase in life span (ILS) is calculated by the following equation: [formula] Experimental days: 35 days (partially 30 days) mice living in final days are not calculated in ILS.
Antitumor activity of this compound has been shown hereinbefore. Furthermore, over 60% ILS was observed when Ehrlich ascites carcinoma, 2×10^6 cells/0.2 ml was inoculated intraperitoneally in mice and 2 days thereafter this compound (30 mg/kg) was administered once a day for 7 days.

The test system of a further data set is mice. As to the kind of experiment: Acute toxicity / mortality in mice. Conditions: for mortality: 150 mg/kg body weight in mice. The class given is in vivo.
Data set [2] can be described thus: Antiviral activity (statement, no method given). The conditions noted are these: statement in words; virus and dose not stated.
Where [3] appears, read: Mus musculus, Table 5, P-388 leukemia treatment, 30 mg (× 5) under head mg/kg.

With `CCCCCCCCCCCCCCCC(=O)OC[C@H](COP(=O)(O)OC[C@H]1O[C@@H](n2cc(F)c(=O)[nH]c2=O)[C@H](O)[C@@H]1O)OC(=O)CCCCCCCCCCCCCCC` [Example 1], the “35 days survivals No./treated” value is given as 0/5 in the data set with P-388 leukemic cells (30 mg/kg (× 5)) and 2/5 in data set [1] (15 mg/kg (× 5)). Also, the “ILS (increase in life span)” value with P-388 leukemic cells (30 mg/kg (× 5)) was 206.3%; in data set [1] (15 mg/kg (× 5)) it was over 88.0%. Besides, the acute toxicity entry in the data set on mice (150 mg/kg i.p. in mice) is recorded as “No acute toxicity was observed”.
Regarding `CCCCCCCCCCCCCCCC(=O)OC[C@H](COP(=O)(O)OCC1=C[C@@H](n2cnc3c(N)ncnc32)[C@H](O)[C@@H]1O)OC(=O)CCCCCCCCCCCCCCC` [Example 2], in the data set with P-388 leukemic cells (50 mg/kg (× 3)), the “35 days survivals No./treated” value is reported as 1/5 and the “ILS (increase in life span)” value is recorded as over 159.3%. In addition, in data set [1] (10 mg/kg (× 7)), the “35 days survivals No./treated” value is listed as 2/5 and the “ILS (increase in life span)” value was over 68.7%. In addition, the acute toxicity result in the data set on mice (250 mg/kg body weight) is “No acute toxicity was observed”.
The compound `CCCCC/C=C\C/C=C\CCCCCCCC(=O)OC[C@H](COP(=O)(O)OC[C@H]1O[C@@H](n2cc(F)c(=O)[nH]c2=O)[C@H](O)[C@@H]1O)OC(=O)CCCCCCC/C=C\C/C=C\CCCCC` [Example 3] showed an ILS at 15 mg/kg in the data set with P-388 leukemic cells (mouse P-388 leukemia, 15 kg/mg, 5 times administration) of 101%. In the data set with P-388 leukemic cells (15 mg/kg (× 5)), the “35 days survivals No./treated” value is 0/5 and the “ILS (increase in life span)” value was found to be 100.8%. Moreover, the acute toxicity entry in the data set on mice (75 mg/kg, mice) was “no acute toxicity”.
The compound `CCCCCCCCCCCCCCCC(=O)OC[C@H](COP(=O)(O)OC[C@H]1O[C@@H](n2cc(F)c(N)nc2=O)[C@@H](O)[C@@H]1O)OC(=O)CCCCCCCCCCCCCCC` [Example 13] showed an ILS at 15 mg/kg with P-388 leukemic cells (Mus musculus, Table 2, P-388 leukemia, 15 mg/kg (× 5), control 7.57-7.64 days) of 152%. Further, the ILS entry in data set [1] (Ehrlich ascites carcinoma 2×10^6 cells i.p., 30 mg/kg once a day for 7 days from 2 days after inoculation) is “over 60%”. The acute toxicity entry with mice (150 mg/kg body weight, mice) was “No acute toxicity”.
On to `CCCCCCCC/C=C\CCCCCCCC(=O)OC[C@H](COP(=O)(O)OC[C@H]1O[C@@H](n2ccc(N)nc2=O)[C@@H](O)[C@@H]1O)OC(=O)CCCCCCC/C=C\CCCCCCCC` [Example 14], for which, in the data set on P-388 leukemic cells (Mus musculus, Table 2, P-388 leukemia, 30 mg/kg (× 5), control 7.57-7.64 days), the ILS at 30 mg/kg is 154%. Besides, in data set [1] (mice Ehrlich ascites carcinoma, dose not stated), the ILS stood at 65.6%. Further, the “acute toxicity or mortality” value with mice (150 mg/kg body weight, mice) is given as “No acute toxicity or mortality”.
On to `CCCCCCCCCCCCCCCCCC(=O)OC[C@H](COP(=O)(O)OC[C@H]1O[C@@H](n2cc(F)c(=O)[nH]c2=O)[C@H](O)[C@@H]1O)OC(=O)CCCCCCCCCCCCCCCCC` [Example 16], for which the ILS at 30 mg/kg in the data set on P-388 leukemic cells (setting [3]) is 206%.
Still for that read-out and setting: for `CCCCCCCCCCCCCCCCCC(=O)OC[C@H](COP(=O)(O)OCC1=C[C@@H](n2cnc3c(N)ncnc32)[C@H](O)[C@@H]1O)OC(=O)CCCCCCCCCCCCCCCCC` [Example 17] the value was 128%; for `CCCCCCCCCCCCCCCCCC(=O)OC[C@H](COP(=O)(O)OC[C@H]1O[C@@H](n2cc(F)c(N)nc2=O)[C@@H](O)[C@@H]1O)OC(=O)CCCCCCCCCCCCCCCCC` [Example 18], 194%; for `CCCCCCCCCCCCCCCCCC(=O)OC[C@H](COP(=O)(O)OC[C@H]1O[C@@H](n2ccc(N)nc2=O)[C@@H](O)[C@@H]1O)OC(=O)CCCCCCCCCCCCCCCCC` [Example 19], 160%.
Still for that read-out and setting: for `CCCCCCCCCCCCCCCCCC(=O)OC[C@H](COP(=O)(O)OC[C@H]1O[C@@H](n2cc(F)c(=O)[nH]c2=O)C[C@@H]1O)OC(=O)CCCCCCCCCCCCCCCCC` [Example 20] the value was 36%.
In the case of `CCCCCCCCCCCCCCCC(=O)OC[C@H](COP(=O)(O)OC[C@H]1O[C@@H](n2cnc3c(N)ncnc32)[C@@H](O)[C@@H]1O)OC(=O)CCCCCCCCCCCCCCC` [dipalmitoyl phosphatidyl arabinosyladenine], the mortality entry in the data set with mice was “no mortality was observed”. In data set [2], the antiviral activity result is recorded as “have antiviral activity”.
For `CCCCCCCCCCCCCCCC(=O)OC[C@H](COP(=O)(O)OC[C@H]1O[C@@H](n2cc(C)c(=O)[nH]c2=O)[C@@H](O)[C@@H]1O)OC(=O)CCCCCCCCCCCCCCC` [dipalmitoyl phosphatidyl arabinosylthymine], in that order: “no mortality was observed” and “have antiviral activity”.

These data come from patent US4797479A, “Nucleoside-phospholipid conjugate” (Toyo Jozo Kabushiki Kaisha, priority 1985, dated 1989).
